Test results published in PMC7558282, “The Anticancer Activity for the Bumetanide-Based Analogs via Targeting the Tumor-Associated Membrane-Bound Human Carbonic Anhydrase-IX Enzyme” (Pharmaceuticals, 2020).

Tests used:
[1] = molecular target: hCA-II (Homo sapiens, UniProt P00918); assay: colorimetric CA-inhibition assay based on CA-esterase activity, hCA-II; details: hCA-II IC50, three replicate experiments; N/D = non-detected IC50 within the range of the tested concentrations
Description: (§1) Based on the kit manufacturer’s protocol, the candidate inhibitors were dissolved in DMSO at 10 × highest final test concentration and specific aliquots of such working dilutions were incubated with the target hCA isozyme for 10 min at room temperature prior to permit the formation of the enzyme-inhibitor complex. Triplicate experiments were performed for each candidate inhibitor concentration. Parallel wells of solvent and enzyme controls were prepared to test the solvent impact upon the activity of the target enzyme. […] Following incubation, the CA-substrate was added and changes in absorbance (at 405 nm) were monitored for 60 min at room temperature within the kinetic mode. The negative enzyme control wells (without added compounds) were arbitrarily set as 100% enzyme activity. […] Absorbance readings from background wells were subtracted from the compound assay wells in order to account for background hydrolysis activity caused by the buffer solution [44, 45].

[2] = system: HEK-293 cells; assay: MTT assay, non-tumorigenic HEK-293; format: cell-based; details: HEK293, normal human embryonic kidney cells
Description: Such differential activity patterns could be explained as off-target activity mediated by the latter compounds being related to a specific cancer cell line.
Figure 3 Antiproliferative activity of compound 9c in tumorigenic A-498 cells and non-tumorigenic HEK-293 cells. The experiment was performed in triplicate and significance was represented as mean ± S.D. ** = p < 0.01; *** = p < 0.001 between indicated groups.
The colorimetric MTT Cell Proliferation® Assay Kit (Cat. №. 10009365; Cayman Chemical^TM, Ann Arbor, MI, USA) has been utilized to assess the cytotoxic impact of the investigated compounds on solid cancer cell lines. […] Color intensity within each well was measured spectrophotometrically using the ROBONIK-P2000® ELISA microplate reader (Bio-Tek^TM, Winooski, VT, USA) at 450 nm while subtracting the background absorbance of multi well plates at 690 nm. The experiment was conducted in triplicates and IC50 values were estimated through linear regression between the logarithm-transformed compound concentrations and corresponding % cell viability = (mean absorbance in test wells/mean absorbance in control wells) ∗ 100, having the response variable slope (four parameters) for all samples.

[3] = system: SCaBER bladder squamous cell carcinoma cells; assay: MTT cell proliferation assay, SCaBER; format: cell-based; details: Homo sapiens, 48 h, ±SEM
Description: Cells were cultured in 96-well plate, at cell density of 1.2–1.8 × 10^4 cells/well, using Dulbecco’s Modified Eagle Medium (Invitrogen^TM, Carlsbad, CA, USA) supplemented with 10% (w/v) fetal bovine serum (Hyclone^TM, Marlborough, MA, USA), 10 ug/mL of insulin (Sigma-Aldrich^TM, St. Louis, MO, USA), and 1% (w/v) penicillin-streptomycin (Sigma-Aldrich^TM, St. Louis, MO, USA). Following 24h-incubation period under 5% CO2 at 37 °C, cells were treated with compounds’ serial concentrations (0.1 µM–100 µM) in DMSO, where the DMSO final concentration in the culture medium never exceeded 0.2% (v/v). Subsequently, the treated microplates were incubated for 48 h at 5% CO2/37 °C prior to examination under the inverted microscope and proceeding for the MTT assay. The culture medium was discarded and 100 µL of complete medium comprising 5 mg/mL MTT dye were dispensed within every well, then plates were reincubated for 2 h at 5% CO2/37 °C. […] Color intensity within each well was measured spectrophotometrically using the ROBONIK-P2000® ELISA microplate reader (Bio-Tek^TM, Winooski, VT, USA) at 450 nm while subtracting the background absorbance of multi well plates at 690 nm. The experiment was conducted in triplicates and IC50 values were estimated through linear regression between the logarithm-transformed compound concentrations and corresponding % cell viability = (mean absorbance in test wells/mean absorbance in control wells) ∗ 100, having the response variable slope (four parameters) for all samples.

[4] = molecular target: hCA-IX (Homo sapiens, UniProt Q16790); assay: colorimetric CA-inhibition assay based on CA-esterase activity, hCA-IX
Description: as §1

CCCCNc1cc(-c2n[nH]c(=S)n2-c2ccc(Br)cc2)cc(S(N)(=O)=O)c1Oc1ccccc1 [Compound 9c]
IC50 [1]: 320 nM
IC50 [2]: > 50000 nM
IC50 [3]: 8800 ± 1900 nM
IC50 ([4]; hCA-IX IC50, three replicate experiments): 4.42 nM
Selectivity Ratio II/IX ([4]; ratio of IC50 values for isozyme CA-II relative to CA-IX): 72.4
